According to PubChem BioAssay AID300 (DTP/NCI, 2004):
Values joined by “and” are separate entries in the source; they are usually repeats but may differ in a detail not shown here. Equal values may be shown once. Records with an inconclusive call do not appear. Rule for the calls: active = survival T/C of 150% or more; inactive = T/C below 125% in these data.

Tested on: Madison 109 lung carcinoma i.m., mice, median survival
Assay: NCI In Vivo Anticancer Drug Screen. Data for tumor model Madison 109 Lung Carcinoma (intramuscular) in unknown mice
Conditions: endpoint: median survival time, higher = longer survival
Method: The antitumor activity of compounds was measured in mice bearing transplantable tumors. Survival or tumor size were measured and the results are expressed as the measurement made in the treated group (T) divided by the measurement made in the vehicle treated control group (C). The tumor model used in this assay is Madison 109 Lung Carcinoma (intramuscular) in unknown mice

[1] = dose: 25.0 mg/kg/injection, schedule: Q01DX009 (ip), vehicle: water
[2] = dose: 50.0 mg/kg/injection, schedule: Q01DX009 (ip), vehicle: water
[3] = dose: 4.0 mg/kg/injection, schedule: Q01DX009 (ip), vehicle: water
[4] = dose: 5.0 mg/kg/injection, schedule: Q01DX009 (ip), vehicle: saline
[5] = dose: 10.0 mg/kg/injection, schedule: Q01DX009 (ip), vehicle: saline

Measured: T/C

CC1=C(/C=C/C(C)=C/C=C/C(C)=C/C(=O)O)C(C)(C)CCC1
inactive: dose: 25.0 mg/kg/injection, schedule: Q01DX009 (ip), vehicle: other 94 % of control | dose: 50.0 mg/kg/injection, schedule: Q01DX009 (ip), vehicle: other 95 % of control

NC(=O)c1ncn(C2OC(CO)C(O)C2O)n1 (centres undefined)
inactive: dose: 12.5 mg/kg/injection, schedule: Q01DX009 (ip), vehicle: water 103 % of control | [1] 100 % of control | [2] 109 % of control | dose: 100.0 mg/kg/injection, schedule: Q01DX009 (ip), vehicle: water 115 % of control

CC[C@H]1CN2CCc3cc(OC)c(OC)cc3[C@@H]2C[C@@H]1C[C@H]1NCCc2cc(OC)c(OC)cc21
inactive: dose: 2.0 mg/kg/injection, schedule: Q01DX009 (ip), vehicle: water 115 % of control | dose: 3.0 mg/kg/injection, schedule: Q01DX009 (ip), vehicle: water 115 % of control | [3] 112 % of control | dose: 6.0 mg/kg/injection, schedule: Q01DX009 (ip), vehicle: water 115 % of control

COc1cccc2c1C(=O)c1c(O)c3c(c(O)c1C2=O)C[C@@](O)(C(C)=O)C[C@@H]3OC1CC(N)C(O)C(C)O1 (some centres undefined)
inactive: dose: 0.25 mg/kg/injection, schedule: Q04DX003 (ip), vehicle: water 108 % of control | dose: 0.5 mg/kg/injection, schedule: Q04DX003 (ip), vehicle: water 120 % of control | dose: 1.0 mg/kg/injection, schedule: Q01DX009 (ip), vehicle: water 111 % of control | dose: 1.0 mg/kg/injection, schedule: Q04DX003 (ip), vehicle: water 94 % of control | dose: 1.5 mg/kg/injection, schedule: Q01DX009 (ip), vehicle: water 55 % of control | dose: 1.5 mg/kg/injection, schedule: Q04DX003 (ip), vehicle: water 122 % of control | dose: 2.5 mg/kg/injection, schedule: Q01DX009 (ip), vehicle: water 32 % of control

O=C(O)c1c(Cl)c(Cl)c(Cl)c(Cl)c1-c1c2cc(I)c(=O)c(I)c-2oc2c(I)c(O)c(I)cc12
inactive: [3] 90 % of control | dose: 8.0 mg/kg/injection, schedule: Q01DX009 (ip), vehicle: water 102 % of control | [1] 100 % of control | dose: 32.0 mg/kg/injection, schedule: Q01DX009 (ip), vehicle: water 107 % of control | [2] 106 % of control | dose: 64.0 mg/kg/injection, schedule: Q01DX009 (ip), vehicle: water 99 % of control

O=c1[nH]cc(F)c(=O)[nH]1
inactive: [4] 94 % of control | [5] 88 % of control | dose: 15.0 mg/kg/injection, schedule: Q01DX009 (ip), vehicle: saline 123 % of control | dose: 20.0 mg/kg/injection, schedule: Q01DX009 (ip), vehicle: saline 113 % of control

C[C@]12C=CC(=O)C=C1CC[C@@H]1[C@@H]2C(=O)C[C@@]2(C)[C@H]1CC[C@]2(O)C(=O)CO
inactive: [4] 113 % of control | [5] 117 % of control | dose: 40.0 mg/kg/injection, schedule: Q01DX009 (ip), vehicle: saline 120 % of control

COC1=C(OC)C(=O)C(C/C=C(\C)CC/C=C(\C)CC/C=C(\C)CC/C=C(\C)CC/C=C(\C)CC/C=C(\C)CC/C=C(\C)CC/C=C(\C)CC/C=C(\C)CCC=C(C)C)=C(C)C1=O
inactive: dose: 1.0 mg/kg/injection, schedule: Q01DX009 (ip), vehicle: other 95 % of control | dose: 2.0 mg/kg/injection, schedule: Q01DX009 (ip), vehicle: other 97 % of control | dose: 4.0 mg/kg/injection, schedule: Q01DX009 (ip), vehicle: other 94 % of control | dose: 8.0 mg/kg/injection, schedule: Q01DX009 (ip), vehicle: other 94 % of control | dose: 16.0 mg/kg/injection, schedule: Q01DX009 (ip), vehicle: other 102 % of control

CN(C)c1nc(N(C)C)nc(N(C)C)n1
inactive: dose: 20.0 mg/kg/injection, schedule: Q01DX009 (ip), vehicle: other 89 % of control | dose: 40.0 mg/kg/injection, schedule: Q01DX009 (ip), vehicle: other 96 % of control

CO[C@H]1/C=C/O[C@@]2(C)Oc3c(C)c(O)c4c(O)c(c(/C=N/N5C(C)CN(Cc6ccccc6)CC5C)c(O)c4c3C2=O)NC(=O)/C(C)=C\C=C\[C@H](C)[C@H](O)[C@@H](C)[C@@H](O)[C@@H](C)[C@H](OC(C)=O)[C@@H]1C (some centres undefined)
inactive: dose: 16.0 mg/kg/injection, schedule: Q03HX008 (ip), vehicle: saline 114 % of control | dose: 16.0 mg/kg/injection, schedule: Q03HX024 (ip), vehicle: saline 101 % of control | dose: 32.0 mg/kg/injection, schedule: Q03HX008 (ip), vehicle: saline 116 % of control | dose: 64.0 mg/kg/injection, schedule: Q01DX009 (ip), vehicle: saline 108 % of control | dose: 64.0 mg/kg/injection, schedule: Q03HX008 (ip), vehicle: saline 109 % of control | dose: 64.0 mg/kg/injection, schedule: Q04DX003 (ip), vehicle: saline 103 % of control | dose: 128.0 mg/kg/injection, schedule: Q01DX001 (ip), vehicle: saline 105 % of control | dose: 128.0 mg/kg/injection, schedule: Q04DX003 (ip), vehicle: saline 106 % of control | dose: 256.0 mg/kg/injection, schedule: Q01DX001 (ip), vehicle: saline 95 % of control

C[C@@H]1C[C@@H]([C@H](O)CC2CC(=O)NC(=O)C2)C(=O)[C@@H](C)C1
inactive: dose: 10.0 mg/kg/injection, schedule: Q01DX009 (ip), vehicle: water 94 % of control | dose: 20.0 mg/kg/injection, schedule: Q01DX009 (ip), vehicle: water 100 % of control

COc1cccc2c1C(=O)c1c(O)c3c(c(O)c1C2=O)C[C@@](O)(C(=O)CO)C[C@@H]3OC1CC(N)C(O)C(C)O1 (some centres undefined)
inactive: dose: 0.25 mg/kg/injection, schedule: Q01DX005 (ip), vehicle: water 102 % of control | dose: 0.4 mg/kg/injection, schedule: Q01DX009 (ip), vehicle: water 98 % of control | dose: 0.5 mg/kg/injection, schedule: Q01DX005 (ip), vehicle: water 119 % of control and 120 % of control | dose: 0.63 mg/kg/injection, schedule: Q04DX003 (ip), vehicle: water 104 % of control | dose: 0.8 mg/kg/injection, schedule: Q01DX009 (ip), vehicle: water 104 % of control | dose: 1.0 mg/kg/injection, schedule: Q01DX005 (ip), vehicle: water 120 % of control | dose: 1.2 mg/kg/injection, schedule: Q01DX009 (ip), vehicle: water 105 % of control | dose: 1.25 mg/kg/injection, schedule: Q04DX003 (ip), vehicle: water 96 % of control | dose: 1.6 mg/kg/injection, schedule: Q01DX009 (ip), vehicle: water 102 % of control | dose: 2.5 mg/kg/injection, schedule: Q01DX005 (ip), vehicle: water 36 % of control | dose: 2.5 mg/kg/injection, schedule: Q04DX003 (ip), vehicle: water 101 % of control

COc1cccc2c1C(=O)c1c(O)c3c(c(O)c1C2=O)CC(O)(C(C)=O)CC3OC1CC(N)C(O)C(C)O1 (centres undefined)
inactive: dose: 5.5 mg/kg/injection, schedule: Q01DX005 (ip), vehicle: water 123 % of control | dose: 8.0 mg/kg/injection, schedule: Q01DX005 (ip), vehicle: water 123 % of control | dose: 16.5 mg/kg/injection, schedule: Q01DX005 (ip), vehicle: water 119 % of control and 120 % of control | dose: 24.0 mg/kg/injection, schedule: Q01DX005 (ip), vehicle: water 73 % of control | dose: 27.5 mg/kg/injection, schedule: Q01DX005 (ip), vehicle: water 52 % of control | dose: 31.5 mg/kg/injection, schedule: Q01DX005 (ip), vehicle: water 123 % of control | dose: 40.0 mg/kg/injection, schedule: Q01DX005 (ip), vehicle: water 114 % of control | dose: 52.5 mg/kg/injection, schedule: Q01DX005 (ip), vehicle: water 114 % of control

C/C(=N/N=C(N)N)c1ccc(NC(=O)Nc2ccc(/C(C)=N/N=C(N)N)cc2)cc1
inactive: [1] 115 % of control | [2] 106 % of control
